Counter-ions that a name gives are not always drawn. Like-named read-outs stand apart in the source and are kept apart here.

In series [1] the target is T1, human vesicular acetylcholine transporter (VAChT) (Homo sapiens, UniProt Q16572).
T1 construct: expressed in transfected cells; host or cells: PC12 A123.7 cells (crude extract / homogenized, partially clarified cells)
T1 sequence (Q16572 1-532): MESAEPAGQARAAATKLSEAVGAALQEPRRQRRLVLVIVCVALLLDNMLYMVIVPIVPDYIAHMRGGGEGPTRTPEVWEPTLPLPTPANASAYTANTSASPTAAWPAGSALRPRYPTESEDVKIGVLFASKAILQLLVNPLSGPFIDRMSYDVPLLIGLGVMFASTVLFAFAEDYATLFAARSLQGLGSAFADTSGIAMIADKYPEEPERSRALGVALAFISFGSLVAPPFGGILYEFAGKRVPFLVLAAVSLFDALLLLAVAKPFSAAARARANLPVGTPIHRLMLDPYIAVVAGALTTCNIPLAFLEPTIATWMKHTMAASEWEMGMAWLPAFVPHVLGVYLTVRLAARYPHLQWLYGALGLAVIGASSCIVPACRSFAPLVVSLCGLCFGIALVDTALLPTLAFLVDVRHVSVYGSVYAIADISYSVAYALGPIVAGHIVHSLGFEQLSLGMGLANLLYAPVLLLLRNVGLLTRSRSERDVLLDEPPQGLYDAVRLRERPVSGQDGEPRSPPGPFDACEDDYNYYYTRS
The series can be described thus: VAChT binding assay, (−)-[3H]vesamicol, human VAChT expressed in PC12 cells.
Protocol: In vitro binding assays of these novel compounds to VAChT were conducted with human vesicular acetylcholine transporter (VAChT) permanently expressed in PC12^A123.7 cells at about 50 pmol/mg of crude extract. […] Duplicate data were averaged and fitted by regression with a rectangular hyperbola to estimate the Ki value of the novel compound. All compounds were independently assayed at least two times.

For the next series, the target named is T2, σ1 receptor (Cavia porcellus, UniProt Q60492).
T2 construct: using guinea pig brain membrane homogenates; from tissue; host or cells: guinea pig brain membrane homogenates
The series can be described thus: σ1 receptor binding assay, (+)-[3H]pentazocine, guinea pig brain membranes.

The target of series [2] is T3, σ2 receptor (Rattus norvegicus, UniProt Q5U3Y7).
T3 sequence (Q5U3Y7 1-176): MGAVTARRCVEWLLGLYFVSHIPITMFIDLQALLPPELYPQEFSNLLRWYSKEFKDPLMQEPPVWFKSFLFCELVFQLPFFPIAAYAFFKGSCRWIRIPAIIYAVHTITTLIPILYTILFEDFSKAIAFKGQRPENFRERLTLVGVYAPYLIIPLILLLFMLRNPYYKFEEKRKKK
As to the kind of experiment: σ2 receptor binding assay, [3H]DTG, rat liver membrane homogenates. More on the design: conducted using rat liver membrane homogenates; from tissue; host or cells: rat liver membrane homogenates.
Protocol: The compounds were dissolved in DMF, DMSO, or ethanol, and then diluted in 50 mM Tris-HCl buffer containing 150 mM NaCl and 100 mM EDTA at pH 7.4, prior to performing the σ1 and σ2 receptor binding assays.
The incubation time was 2 h at room temperature. Nonspecific binding was determined from samples that contained 10 μM of cold haloperidol. All other procedures were identical to those described for the σ1 receptor binding assay above.
Ki values were calculated using the method of Cheng and Prusoff and are presented as the mean (±1 SEM).

In another series the target is T4, σ1 receptors (Rattus norvegicus, UniProt Q9R0C9).
T4 construct: tested in rat brain and in guinea pig membranes, respectively; from tissue; host or cells: rat brain
The series can be described thus: σ1 binding of Table 5 compounds.

In series [3] the target is T3, σ2 receptor. The series can be described thus: σ2 binding of Table 5 compounds. The note with it: read-out: σ2 Ki (nM) ± SEM; Table 6. More on the design: species or system guinea pig. The procedure: Compounds were tested for VAChT binding using highly purified Torpedo synaptic vesicles. The σ1 and σ2 binding affinities were tested in rat brain and in guinea pig membranes, respectively. Structures and Equilibrium binding constants (Ki) are reported in Table 5 and Table 6, respectively. As in previous studies, we define ligand selectivity in terms of a selectivity index which is calculated as Ki (σ1 or σ2)/Ki (VAChT).
Consequently, we also screened the target compounds for sigma binding to identify selective VAChT ligands from this new structural class of agents.

The target in the next series is T5, VAChT (Tetronarce californica, UniProt P81721).
T5 construct: using highly purified Torpedo synaptic vesicles; from tissue
T5 sequence (P81721 1-515): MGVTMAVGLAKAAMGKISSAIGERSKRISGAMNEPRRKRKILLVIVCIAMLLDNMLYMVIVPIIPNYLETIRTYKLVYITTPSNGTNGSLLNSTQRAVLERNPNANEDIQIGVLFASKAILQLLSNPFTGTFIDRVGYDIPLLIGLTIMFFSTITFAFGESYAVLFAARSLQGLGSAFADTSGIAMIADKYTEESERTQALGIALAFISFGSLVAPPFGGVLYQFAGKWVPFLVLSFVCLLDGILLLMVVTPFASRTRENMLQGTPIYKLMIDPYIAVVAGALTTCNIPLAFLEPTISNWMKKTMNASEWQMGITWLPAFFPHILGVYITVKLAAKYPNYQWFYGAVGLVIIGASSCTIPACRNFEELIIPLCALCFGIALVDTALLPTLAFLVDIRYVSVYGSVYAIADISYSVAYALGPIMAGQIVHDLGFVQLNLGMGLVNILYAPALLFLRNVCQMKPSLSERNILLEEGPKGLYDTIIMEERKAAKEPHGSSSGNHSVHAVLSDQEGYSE
The series can be described thus: biochemical. To be noted: for VAChT/σ selectivity: in words; for σ1/VAChT: selectivity index Ki (σ1)/Ki (VAChT); for σ2/VAChT: selectivity index Ki (σ2)/Ki (VAChT). The class given is binding.

Where [4] appears, read: Table 4, Ki values of VAChT specific compounds, source not given, read-out: VAChT.
Setting [5] is: Table 4, Ki values of VAChT specific compounds, tissue not given, read-out: Sigma-1 σ1.
[6] abbreviates: Table 4, Ki values of VAChT specific compounds, tissue not given, read-out: Sigma-2 σ1.
[7] abbreviates: Sigma-2 σ1 (nM), Table 4, Ki values of VAChT specific compounds, tissue not given.

T2 sequence (Q60492 whole entry): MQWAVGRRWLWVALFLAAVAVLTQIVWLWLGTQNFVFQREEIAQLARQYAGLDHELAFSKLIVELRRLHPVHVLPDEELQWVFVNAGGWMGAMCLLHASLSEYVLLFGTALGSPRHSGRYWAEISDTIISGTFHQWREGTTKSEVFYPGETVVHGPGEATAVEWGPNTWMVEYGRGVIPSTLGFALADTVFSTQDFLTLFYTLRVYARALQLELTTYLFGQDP
T4 sequence (Q9R0C9 whole entry): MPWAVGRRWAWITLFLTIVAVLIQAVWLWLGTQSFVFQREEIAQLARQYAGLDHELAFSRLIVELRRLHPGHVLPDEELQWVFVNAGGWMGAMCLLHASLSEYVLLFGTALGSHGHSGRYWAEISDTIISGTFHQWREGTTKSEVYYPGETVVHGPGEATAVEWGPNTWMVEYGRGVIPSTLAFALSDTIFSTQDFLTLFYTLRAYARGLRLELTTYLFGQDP

What is called melting point is the temperature of the solid-liquid transition. Regarding `O=C(c1ccc(F)cc1)C1CCN(C2CCN(C(=O)c3ccc(F)cc3)CC2O)CC1` (stereo not drawn) (as salt: oxalate) [Compound 15a, (3′-Hydroxy-[1,4′-bipiperidine]-1′,4-diyl)bis(4-fluorophenyl)methanone], the melting point is 213 °C (dec.).

For the compound `O=C(c1ccc(F)cc1)C1CCN(C2CCN(C(=O)c3ccccc3)CC2O)CC1` (stereo not drawn) (as salt: oxalate) [Compound 15c, (1′-Benzoyl-3′-hydroxy-[1,4′-bipiperidin]-4-yl)(4-fluorophenyl)methanone], the melting point was 152 °C (dec.).

Regarding `COc1ccc(C(=O)C2CCN(C3CCN(C(=O)c4ccc(F)cc4)CC3O)CC2)cc1` (stereo not drawn) (as salt: oxalate) [Compound 15e, (1′-(4-Fluorobenzoyl)-3′-hydroxy-[1,4′-bipiperidin]-4-yl)(4-methoxyphenyl)methanone], the melting point was 216 °C (dec.).

On to `COc1ccc(C(=O)C2CCN(C3CCN(C(=O)c4ccncc4)CC3O)CC2)cc1` (stereo not drawn) (as salt: oxalate) [Compound 15g, (3′-Hydroxy-1′-isonicotinoyl-[1,4′-bipiperidin]-4-yl)(4-methoxyphenyl)methanone], for which the melting point is 220 °C (dec.).

In the case of `Cn1cccc1C(=O)C1CCN(C2Cc3ccccc3CC2O)CC1` (stereo not drawn) (as salt: oxalate) [OS-5-60, (1-(3-Hydroxy-1,2,3,4-tetrahydronaphthalen-2-yl)piperidin-4-yl)(1-methyl-1H-pyrrol-2-yl) methanone oxalate], the melting point is 212 to 213 °C.

Compound `Cc1ccc(C(=O)C2CCN(C3Cc4c(N)cccc4CC3O)CC2)cn1` (stereo not drawn) (as salt: oxalate) [OS-5-70, (1-(8-amino-3-hydroxy-1,2,3,4-tetrahydronaphthalen-2-yl)piperidin-4-yl)(6-methylpyridin-3-yl)methanone oxalate] had a melting point of 98 to 103 °C.

The compound `COc1ccc(C(=O)C2CCN(C3Cc4c(N)cccc4CC3O)CC2)cn1` (stereo not drawn) (as salt: oxalate) [OS-5-82, (1-(8-Amino-3-hydroxy-1,2,3,4-tetrahydronaphthalen-2-yl)piperidin-4-yl)(6-methoxypyridin-3-yl)methanone oxalate] registered a melting point of 81.4 to 83.2 °C.

`Nc1cccc2c1CC(N1CCC(C(=O)c3cccnc3)CC1)C(O)C2` (stereo not drawn) (as salt: oxalate) [OS-5-110, (1-(8-Amino-3-hydroxy-1,2,3,4-tetrahydronaphthalen-2-yl)piperidin-4-yl)(pyridin-3-yl)methanone oxalate] had a melting point of 109 to 111.2 °C.

Regarding `COc1ccc(C(=O)C2CCN(C3CCN(Cc4ccccc4)CC3O)CC2)cc1` (racemic) (as salt: oxalate) [Compound 14g, (1′-Benzyl-3′-hydroxy-[1,4′-bipiperidin]-4-yl)(4-methoxyphenyl)methanone], the melting point was 234 °C (dec.).

In the case of `COc1ccc(C(=O)C2CCN(C3CCN(Cc4ccncc4)CC3O)CC2)cc1` (racemic) (as salt: oxalate) [Compound 14h, (3′-Hydroxy-1′-(pyridin-4-ylmethyl)-[1,4′-bipiperidin]-4-yl)(4-methoxyphenyl)methanone], the melting point was 188 °C (dec.).

For the compound `COc1ccc(C(=O)C2CCN(C3Cc4ccccc4CC3O)CC2)cc1` (stereo not drawn) [DZT-I-107], the results for the Ki (in series [1] (setting [4]); at σ1 receptor (setting [5]); on σ2 receptor [2] (setting [6])) were 4.64 ± 0.47 nM, 0.132 ± 0.0101 µM and 1953 ± 13.1 nM, respectively.

Turning to `Cc1ccc(C(=O)C2CCN(C3Cc4ccccc4CC3O)CC2)cn1` (stereo not drawn) [OS-5-40, oxalate], the Ki at σ1 receptors amounted to 2.11 ± 0.289 µM; on σ2 receptor [3], 3770 ± 886 nM; on σ2 receptor [2] (setting [7]) it was 3770 ± 886 nM.

For `Cn1cccc1C(=O)C1CCN(C2Cc3ccccc3CC2O)CC1` (stereo not drawn) [OS-5-60, (1-(3-Hydroxy-1,2,3,4-tetrahydronaphthalen-2-yl)piperidin-4-yl)(1-methyl-1H-pyrrol-2-yl) methanone oxalate], the Ki at σ1 receptors worked out at 1.3 ± 0.093 µM. For the same compound, the Ki on σ2 receptor [3] was 2550 ± 339 nM. On σ2 receptor [2] (setting [7]), the Ki was 2550 ± 339 nM. Moreover, on VAChT, the Ki worked out at 0.0184 ± 0.00254 µM, the VAChT/σ selectivity entry is listed as “moderate or high”, the σ1/VAChT is listed as 70.7 and the σ2/VAChT is reported as 138.8.

As for `Nc1cccc2c1CC(N1CCC(C(=O)c3cccnc3)CC1)C(O)C2` (stereo not drawn) [OS-5-110, (1-(8-Amino-3-hydroxy-1,2,3,4-tetrahydronaphthalen-2-yl)piperidin-4-yl)(pyridin-3-yl)methanone oxalate], the Ki is 20.3 ± 8.13 µM at σ1 receptors; 2.2 nM in series [1] (VAChT (nM), Table 4, Ki values of VAChT specific compounds, source not given); 5080 ± 221 nM at σ2 receptor [3]; 5080 ± 221 nM on σ2 receptor [2] (setting [7]); 0.118 ± 0.0236 µM at VAChT. For the same compound, at VAChT, the VAChT/σ selectivity result is reported as “moderate or high”. This compound showed a σ1/VAChT at VAChT of 172.4. Further, the σ2/VAChT at VAChT stood at 43.0.

`O=C(c1ccc(OCCF)cc1)C1CCN(C2Cc3ccccc3CC2O)CC1` (stereo not drawn) [TZ-3-148]: the Ki at σ1 receptors came to 0.0132 ± 0.0002 µM; on σ2 receptor [3], 1890 ± 239 nM. Besides, the VAChT/σ selectivity entry at VAChT is “poor selectivity”.

As for `CNc1ccc(C(=O)C2CCN(C3Cc4ccccc4CC3O)CC2)cc1` (stereo not drawn) [TZ-3-156], the Ki at σ1 receptors was 0.0132 ± 0.00048 µM. For the same compound, the Ki at σ2 receptor [3] was 6180 ± 537 nM. At VAChT, the Ki is 0.00303 µM, the VAChT/σ selectivity entry is on record as “high selectivity”, the σ1/VAChT is 100.5 and the σ2/VAChT came out at 2040.

Consider `O=C(c1ccc(OCCF)nc1)C1CCN([C@H]2Cc3ccccc3C[C@@H]2O)CC1` [TZ-5-3], for which the Ki at σ1 receptors is 2.12 ± 0.049 µM. Moreover, the Ki on σ2 receptor [3] came to 1860 ± 144 nM. At VAChT, the Ki was 0.038 ± 0.00384 µM, the VAChT/σ selectivity entry is reported as “moderate or high”, the σ1/VAChT worked out at 55.8 and the σ2/VAChT turned out to be 48.9.

Consider `COc1ccc(C(=O)C2CCN(C3CN(Cc4ccccc4)CCC3O)CC2)cc1` (stereo not drawn) [WW-1-109], for which the Ki is 35.5 ± 11.1 nM in series [1] (setting [4]), 0.208 ± 0.053 µM at σ1 receptor (setting [5]) and 8540 ± 1900 nM on σ2 receptor [2] (setting [6]).

In the case of `COc1ccc(C(=O)C2CCN(C3CN(Cc4cccnc4)CCC3O)CC2)cc1` (stereo not drawn) [WW-III-25], the Ki in series [1] (setting [4]) came to 107 ± 11.1 nM; on σ1 receptor (setting [5]) it was 2.23 ± 0.168 µM; at σ2 receptor [2] (setting [6]), 17100 ± 3860 nM.

Regarding `O=C(c1ccc(F)cc1)C1CCN(C2CN(Cc3cccnc3)CCC2O)CC1` (stereo not drawn) [WW-III-47], the Ki was 237 ± 41.4 nM in series [1] (setting [4]), 1.16 ± 0.128 µM on σ1 receptor (setting [5]) and 13000 ± 2630 nM at σ2 receptor [2] (setting [6]).

Turning to “(4-Fluorophenyl)(4′-hydroxy-1′-(pyridin-4-ylmethyl)-[1,3′-bipiperidin]-4-yl)methanone [Compound 16d]”, the Ki was found to be 237 nM in series [1] (expressed human VAChT, mean ± SEM, read-out: VAChT (Ki)); 1.16 ± 0.128 µM at σ1 receptor (membrane preparations of guinea pig brain, mean ± SEM, at least three experiments, read-out: σ1 (Ki)); 13000 ± 2630 nM on σ2 receptor [2] (homogenates of rat liver, mean ± SEM, read-out: σ2 (Ki)). Further, on σ1 receptor (ratio of Ki values, Table 1), the σ1/VAChT selectivity is 0.20. Also, the σ1/σ2 selectivity at σ1 receptor (ratio of Ki values, Table 1) was 11.

For the origin of these results see patent US8658131B2, “Compounds comprising 4-benzoylpiperidine as a sigma-1-selective ligand” (Washington University, priority 2010, dated 2014).
